Data published in ChEMBL document CHEMBL3611985, “Synthesis and structure-activity relationships of novel 9-oxime acylides with improved bactericidal activity” (2015).
Converted amounts (≈) assume the structure as drawn.

Key:
Type in all cases: functional
[1] = tested on: Streptococcus pneumoniae; experiment: Antimicrobial activity against penicillin-susceptible Streptococcus pneumoniae PU09 incubated for 20 to 24 hrs by two-fold microbroth dilution method
[2] = tested on: Streptococcus pneumoniae; experiment: Antimicrobial activity against erythromycin-susceptible Streptococcus pneumoniae ATCC 49619 incubated for 20 to 24 hrs by two-fold microbroth dilution method
[3] = tested on: Streptococcus pneumoniae; experiment: Antimicrobial activity against Streptococcus pneumoniae 07P390 expressing constitutive ermB incubated for 20 to 24 hrs by two-fold microbroth dilution method
[4] = tested on: Staphylococcus aureus; experiment: Antimicrobial activity against methicillin-resistant Staphylococcus aureus PU20 expressing constitutive ermC incubated for 20 hrs by two-fold microbroth dilution method; conditions: PU20, 20 h
[5] = tested on: Haemophilus influenzae; experiment: Antimicrobial activity against azithromycin-susceptible and ampicillin-resistant Haemophilus influenzae 11P037 incubated for 20 to 24 hrs by two-fold microbroth dilution method
[6] = tested on: Staphylococcus aureus; experiment: Antimicrobial activity against methicillin-resistant Staphylococcus aureus PU32 expressing inducible ermA incubated for 20 hrs by two-fold microbroth dilution method; conditions: PU32, 20 h
[7] = tested on: Streptococcus pyogenes; experiment: Antimicrobial activity against Streptococcus pyogenes 01-968 expressing inducible ermA incubated for 20 to 24 hrs by two-fold microbroth dilution method
[8] = tested on: Streptococcus pyogenes; experiment: Bactericidal activity against Streptococcus pyogenes 12-207 expressing mef incubated for 20 to 24 hrs followed by sub-culturing for 24 hrs in absence of compound
[9] = tested on: Staphylococcus aureus; experiment: Ratio of MBC to MIC against methicillin-resistant Staphylococcus aureus PU32 expressing inducible ermA
[10] = tested on: Streptococcus pyogenes; experiment: Bactericidal activity against Streptococcus pyogenes 01-968 expressing inducible ermA incubated for 20 to 24 hrs followed by sub-culturing for 24 hrs in absence of compound
[11] = tested on: Streptococcus pyogenes; experiment: Ratio of MBC to MIC against Streptococcus pyogenes 01-968 expressing inducible ermA
[12] = tested on: Moraxella catarrhalis; experiment: Ratio of MBC to MIC against erythromycin-susceptible Moraxella catarrhalis 11B366
[13] = tested on: Streptococcus pyogenes; experiment: Ratio of MBC to MIC against Streptococcus pyogenes 12-207 expressing mef
[14] = tested on: Haemophilus influenzae; experiment: Ratio of MBC to MIC against azithromycin-susceptible and ampicillin-resistant Haemophilus influenzae 11P037
[15] = tested on: Streptococcus pyogenes; experiment: Antimicrobial activity against Streptococcus pyogenes 12-207 expressing mef incubated for 20 to 24 hrs by two-fold microbroth dilution method
[16] = tested on: Moraxella catarrhalis; experiment: Antimicrobial activity against erythromycin-susceptible Moraxella catarrhalis 11B366 incubated for 20 hrs by two-fold microbroth dilution method; conditions: 11B366, 20 h
[17] = tested on: Moraxella catarrhalis; experiment: Bactericidal activity against erythromycin-susceptible Moraxella catarrhalis 11B366 incubated for 20 hrs followed by sub-culturing for 24 hrs in absence of compound
[18] = tested on: Haemophilus influenzae; experiment: Bactericidal activity against azithromycin-susceptible and ampicillin-resistant Haemophilus influenzae 11P037 incubated for 20 to 24 hrs followed by sub-culturing for 24 hrs in absence of compound
[19] = tested on: Staphylococcus aureus; experiment: Bactericidal activity against methicillin-resistant Staphylococcus aureus PU32 expressing inducible ermA incubated for 20 hrs followed by sub-culturing for 24 hrs in absence of compound
[20] = tested on: Staphylococcus aureus; experiment: Ratio of MBC to MIC against methicillin-resistant Staphylococcus aureus PU20 expressing constitutive ermC
[21] = tested on: Streptococcus pneumoniae; experiment: Bactericidal activity against penicillin-susceptible Streptococcus pneumoniae PU09 incubated for 20 to 24 hrs followed by sub-culturing for 24 hrs in absence of compound
[22] = tested on: Streptococcus pneumoniae; experiment: Ratio of MBC to MIC against erythromycin-susceptible Streptococcus pneumoniae ATCC 49619
[23] = tested on: Streptococcus pneumoniae; experiment: Bactericidal activity against erythromycin-susceptible Streptococcus pneumoniae ATCC 49619 incubated for 20 to 24 hrs followed by sub-culturing for 24 hrs in absence of compound
[24] = tested on: Staphylococcus aureus; experiment: Bactericidal activity against methicillin-resistant Staphylococcus aureus PU20 expressing constitutive ermC incubated for 20 hrs followed by sub-culturing for 24 hrs in absence of compound
[25] = tested on: Streptococcus pneumoniae; experiment: Ratio of MBC to MIC against penicillin-susceptible Streptococcus pneumoniae PU09

In the case of `CC[C@H]1OC(=O)[C@H](C)[C@@H](OC(=O)Cc2ccccn2)[C@H](C)[C@@H](O[C@@H]2O[C@H](C)C[C@H](N(C)C)[C@H]2O)[C@](C)(OC)C[C@@H](C)/C(=N\OCCCc2ccc(NC(=O)Cc3ccccn3)nc2)[C@H](C)[C@H]2OC(=O)O[C@@]21C`, the MIC [1] is reported as 2 µg/mL (≈ 1.99 µM), the MIC [2] is reported as 0.125 µg/mL (≈ 0.125 µM) and the MIC [3] is reported as 2 µg/mL (≈ 1.99 µM). For the same compound, the MIC [4] was > 64 µg/mL, the MIC [5] was > 64 µg/mL and the MIC [6] was 2 µg/mL (≈ 1.99 µM). It also gave an MIC [7] of 8 µg/mL (≈ 7.97 µM).
`CC[C@H]1OC(=O)[C@H](C)[C@@H](O[C@H]2C[C@@](C)(OC)[C@@H](O)[C@H](C)O2)[C@H](C)[C@@H](O[C@@H]2O[C@H](C)C[C@H](N(C)C)[C@H]2O)[C@](C)(OC)C[C@@H](C)C(=O)[C@H](C)[C@@H](O)[C@]1(C)O` [CLARITHROMYCIN] was tested, and the MBC [8] was 32 µg/mL (≈ 42.8 µM), the Ratio [9] was >2 and the MIC [1] was 2 µg/mL (≈ 2.67 µM). The MBC [10] was > 8 µg/mL, the MIC [2] was 0.062 µg/mL (≈ 0.0829 µM) and the MIC [3] was > 64 µg/mL. The Ratio [11] was >8, the Ratio [12] was 2 and the MIC [4] was > 64 µg/mL. The Ratio [13] was 2, the Ratio [14] was 8 and the MIC [15] was 16 µg/mL (≈ 21.4 µM). It also gave an MIC [16] of 0.125 µg/mL (≈ 0.167 µM), an MBC [17] of 0.25 µg/mL (≈ 0.334 µM) and an MIC [5] of 4 µg/mL (≈ 5.35 µM). For the same compound, the MIC [6] was 32 µg/mL (≈ 42.8 µM), the MBC [18] was 8 µg/mL (≈ 10.7 µM) and the MBC [19] was > 16 µg/mL. It also gave an MIC [7] of 4 µg/mL (≈ 5.35 µM).
In the case of `CC[C@H]1OC(=O)[C@H](C)[C@@H](OC(=O)Cc2ccccn2)[C@H](C)[C@@H](O[C@@H]2O[C@H](C)C[C@H](N(C)C)[C@H]2O)[C@](C)(OC)C[C@@H](C)/C(=N\OCC#Cc2ccc(-n3ccnc3)cc2)[C@H](C)[C@H]2OC(=O)O[C@@]21C`, the MBC [8] is reported as 8 µg/mL (≈ 8.6 µM), the Ratio [9] is reported as >8 and the MIC [1] is reported as 2 µg/mL (≈ 2.15 µM). For the same compound, the MBC [10] was > 0.5 µg/mL, the Ratio [20] was 2 and the MBC [21] was 4 µg/mL (≈ 4.3 µM). For the same compound, the Ratio [22] was 2, the MIC [2] was 0.125 µg/mL (≈ 0.134 µM) and the Ratio [11] was >8. The Ratio [12] was 2, the MIC [4] was 32 µg/mL (≈ 34.4 µM) and the MBC [23] was 0.25 µg/mL (≈ 0.269 µM). It also gave a Ratio [13] of 8, an MIC [15] of 1 µg/mL (≈ 1.08 µM) and an MIC [16] of 4 µg/mL (≈ 4.3 µM). For the same compound, the MBC [17] was 8 µg/mL (≈ 8.6 µM), the MIC [5] was > 256 µg/mL and the MIC [6] was 2 µg/mL (≈ 2.15 µM). For the same compound, the MBC [19] was > 16 µg/mL, the MBC [24] was 64 µg/mL (≈ 68.8 µM) and the MIC [7] was 0.062 µg/mL (≈ 0.0667 µM). The Ratio [25] was 2.
For `CC[C@H]1OC(=O)[C@H](C)[C@@H](OC(=O)Cc2ccccn2)[C@H](C)[C@@H](O[C@@H]2O[C@H](C)C[C@H](N(C)C)[C@H]2O)[C@](C)(OC)C[C@@H](C)/C(=N\OCC#Cc2ccc([N+](=O)[O-])nc2)[C@H](C)[C@H]2OC(=O)O[C@@]21C`, the MIC [1] was 0.5 µg/mL (≈ 0.549 µM), the MIC [2] was 0.031 µg/mL (≈ 0.0341 µM) and the MIC [3] was 1 µg/mL (≈ 1.1 µM). The MIC [4] was > 64 µg/mL, the MIC [5] was > 64 µg/mL and the MIC [6] was 0.25 µg/mL (≈ 0.275 µM). For the same compound, the MIC [7] was 0.5 µg/mL (≈ 0.549 µM).
In the case of `CC[C@H]1OC(=O)[C@H](C)[C@@H](OC(=O)Cc2ccccn2)[C@H](C)[C@@H](O[C@@H]2O[C@H](C)C[C@H](N(C)C)[C@H]2O)[C@](C)(OC)C[C@@H](C)/C(=N\OCC#Cc2cccc(NC(=O)Cc3ccccn3)n2)[C@H](C)[C@H]2OC(=O)O[C@@]21C`, the MIC [1] is reported as 2 µg/mL (≈ 2 µM), the MIC [2] is reported as 0.125 µg/mL (≈ 0.125 µM) and the MIC [3] is reported as 1 µg/mL (≈ 1 µM). For the same compound, the MIC [4] was > 64 µg/mL, the MIC [5] was > 64 µg/mL and the MIC [6] was 2 µg/mL (≈ 2 µM). For the same compound, the MIC [7] was 4 µg/mL (≈ 4 µM).
Work on `CC[C@H]1OC(=O)[C@H](C)[C@@H](OC(=O)Cc2ccccn2)[C@H](C)[C@@H](O[C@@H]2O[C@H](C)C[C@H](N(C)C)[C@H]2O)[C@](C)(OC)C[C@@H](C)/C(=N\OCC#Cc2cncc(NC(=O)Cc3ccccn3)c2)[C@H](C)[C@H]2OC(=O)O[C@@]21C` yielded an MIC [1] of 2 µg/mL (≈ 2 µM), an MIC [2] of 0.031 µg/mL (≈ 0.031 µM) and an MIC [3] of 1 µg/mL (≈ 1 µM). The MIC [4] was > 64 µg/mL, the MIC [5] was > 64 µg/mL and the MIC [6] was 2 µg/mL (≈ 2 µM). It also gave an MIC [7] of 4 µg/mL (≈ 4 µM).
Work on `CC[C@H]1OC(=O)[C@H](C)[C@@H](OC(=O)Cc2ccccn2)[C@H](C)[C@@H](O[C@@H]2O[C@H](C)C[C@H](N(C)C)[C@H]2O)[C@](C)(OC)C[C@@H](C)/C(=N\OCC#Cc2ccc(NC(=O)Cc3ccccn3)nc2)[C@H](C)[C@H]2OC(=O)O[C@@]21C` yielded an MIC [1] of 1 µg/mL (≈ 1 µM), an MIC [2] of 0.062 µg/mL (≈ 0.0621 µM) and an MIC [3] of 1 µg/mL (≈ 1 µM). The MIC [4] was > 64 µg/mL, the MIC [5] was > 64 µg/mL and the MIC [6] was 4 µg/mL (≈ 4 µM). It also gave an MIC [7] of 4 µg/mL (≈ 4 µM).
`CC[C@H]1OC(=O)[C@H](C)[C@@H](OC(=O)Cc2ccccn2)[C@H](C)[C@@H](O[C@@H]2O[C@H](C)C[C@H](N(C)C)[C@H]2O)[C@](C)(OC)C[C@@H](C)/C(=N\OC/C=C/c2ccc(NC(=O)Cc3ccccn3)nc2)[C@H](C)[C@H]2OC(=O)O[C@@]21C` gave an MIC [1] of 2 µg/mL (≈ 2 µM), an MIC [2] of 0.125 µg/mL (≈ 0.125 µM) and an MIC [3] of 2 µg/mL (≈ 2 µM). The MIC [4] was > 64 µg/mL, the MIC [5] was > 64 µg/mL and the MIC [6] was 4 µg/mL (≈ 4 µM). For the same compound, the MIC [7] was 8 µg/mL (≈ 7.99 µM).
